Laboratory results as given in patent publication US6511970B1, “Prevention of ovarian cancer by administration of products that induce transforming growth factor-beta and/or apoptosis in the ovarian epithelium” (New Life Pharmaceuticals Inc., priority 1996, dated 2003).

Legend:
[1] = system: human ovarian epithelial cells; assay: Cell death ELISA in normal human ovarian epithelial cell culture; format: cell-based; settings: 100 nM, 96 hours, p=0.01
Description: Example 10 addresses the effect of administration of Vitamin D on human ovarian epithelial cells. According to this example, a cell culture derived from normal ovarian epithelial cells was plated in 24 well plates at a concentration of 100,000 cells per well. After 24 hours, the wells were treated with 1,25-dihydroxyvitamin D3 at a 100 nM concentration or control medium, and allowed to incubate for 96 hours. All experiments were carried out in triplicate. After 96 hours, cell lysates were extracted from each of the wells, and the cytoplasmic fraction was normalized for cell number and analyzed for DNA-histone complexes indicative of apoptosis using a cell death ELISA (Boehringer Mannheim). A significant (300%) increase in apoptosis (p=0.01) was measured in the human ovarian epithelial cells treated with Vitamin D as compared with the controls.

[2] = serum; cited from earlier work
TGF β3 = assay: Anti-TGF β3 immunohistochemical staining of M-100 cells; format: cell-based, human; settings: 100 nM, 72 hours
Description: An immortalized cell line, M-100, derived from a normal human ovarian epithelial cell culture established in our laboratory was plated in 100 mm plates at a concentration of 1 million cells per plate, in the presence of either 1,25 (OH)2 D3 or the Vitamin D analogue […] at doses of each (100 nM) or control medium, and allowed to incubate for 72 hours. After 72 hours, cells were scraped from each of the plates, fixed on glass slides, and stained immunohistochemically with anti-TGF β3 antibody.

TGF beta-3 [3] = assay: TGF beta-3 immunohistochemical staining in monkey ovarian oocytes; format: in vivo, cynomolgus monkeys; settings: Triphasil-pattern doses in diet
From the text: (§1) Young female adult cynomolgus monkeys were fed a diet for three years that contained either no hormones, the oral combination contraceptive “[…],” the estrogenic component of “[…] estradiol) alone, or the progestin component of “[…]” (levonorgestrel) alone, each administered in the same pattern that occurs in a “[…]” regimen. Doses were scaled on the basis of caloric intake, which is the accepted way to achieve human-equivalent doses. […] This cyclic regimen was repeated every 28 days continuously for 2 years. In a similar experiment, the effect of hormone treatment on expression of TGF-β3 was examined in the ovaries of primates from the trial described above. This study uses monkeys that were randomized in the study above of apoptosis in the ovarian epithelium. […] Ovarian sections from each of the monkeys were stained immunohistochemically for expression of TGF beta-3, using an anti-TGF-beta-3 monoclonal antibody. […] Two blinded observers then quantitated degree of expression of TGF-β3 by grading the intensity of staining on a scale of 1-4+ in several ovarian compartments: 1) epithelium, 2) oocytes, 3) endothelial cells, 4) granulosa cells. The staining was characterized as negative (0-2+) versus positive (3-4+). The following tables show the distribution of negative (0-2) and positive (3-4) staining among the randomized treatment groups for each separate ovarian compartment (i.e.: epithelial, oocyte cytoplasm, granulosa, and endothelial).

TGF beta-3 [4] = assay: TGF beta-3 immunohistochemical staining in monkey ovarian endothelial cells; format: in vivo, cynomolgus monkeys; settings: Triphasil-pattern doses in diet
From the text: as §1

ovarian epithelial cells = assay: Apoptosis in monkey ovarian surface epithelium in vivo (Apoptag-plus staining); set-up: species or system cynomolgus monkeys; settings: in diet, Triphasil-pattern human-equivalent doses, 28-day cycles for 2 years
From the text: Young female adult cynomolgus monkeys were fed a diet for […] that contained either no hormones, the oral combination contraceptive “[…],” the estrogenic component of “[…] estradiol) alone, or the progestin component of “[…]” (levonorgestrel) alone, each administered in the same pattern that occurs in a “[…]” regimen. Doses were scaled on the basis of caloric intake, which is the accepted way to achieve human-equivalent doses. […] This cyclic regimen was repeated every 28 days continuously for 2 years. At the completion of the two years of the study, the animals were sacrificed, and their ovaries were removed and both formalin-fixed and paraffin embedded as well as flash frozen and stored at minus 70 degrees Celsius. Five-micron ovarian sections were mounted on coated slides, and stained with the Apoptag-plus kit (Oncor, Gaithersburg, Md.), which specifically labels the 3' end of free DNA fragments in cells undergoing DNA fragmentation, a characteristic of apoptosis. After staining, cells undergoing apoptosis were easily identified by their dark brown nuclear discoloration. The ovarian surface epithelium was examined histologically to assess ovarian epithelial morphology and to determine the percentage of ovarian cells undergoing apoptosis. To calculate the percentage of ovarian epithelial cells undergoing apoptosis, both the total number of ovarian epithelial cells and the number undergoing apoptosis were counted on each five-micron ovarian section. At each step, the investigators were completely blinded with regard to which treatment group was associated with each ovary.

TGF beta-3 [5] = assay: TGF beta-3 immunohistochemical staining in monkey ovarian epithelium; format: in vivo, cynomolgus monkeys; settings: Triphasil-pattern doses in diet
From the text: as §1

[6] = system: ovarian and oviductal tumors; assay: Two-year chemoprevention trial in the chicken; format: in vivo; settings: two-year mark; feed restriction (anovulatory); preliminary results
Description: A two-year prevention trial was performed in the chicken, designed to test the hypothesis that progestins confer prevention against ovarian cancer. Two thousand two year-old birds were randomized into several groups, including untreated controls, and groups receiving the progestins provera or levonorgestrel. The trial has just completed, and tumors accrued during the trial are currently being studied.

[7] = system: M-100 immortalized human ovarian epithelial cells; assay: Cell death ELISA (DNA-histone complexes) in M-100 cells; format: cell-based; settings: 20 ng/ml, 96 hours, P<0.05
Description: Specifically, a spontaneously immortalized cell line, M-100, derived from a normal human ovarian epithelial cell culture was plated in 24 well plates at a concentration of 100,000 cells per well. […] All experiments were performed in triplicate.

TGF beta-3 [8] = assay: TGF beta-3 immunohistochemical staining in monkey ovarian granulosa cells; format: in vivo, cynomolgus monkeys; settings: Triphasil-pattern doses in diet
From the text: as §1

SMILES | TGF β3 expression as compared to controls (in words) (TGF β3) | Oocyte cytoplasm staining Negative (0-2+), number of monkeys (TGF beta-3 [3]) | Oocyte cytoplasm staining Positive (3-4+), number of monkeys (TGF beta-3 [3]) | Oocyte cytoplasm staining Positive (3-4+), percent of monkeys (TGF beta-3 [3]) | Endothelial staining Negative (0-2+), number of monkeys (TGF beta-3 [4]) | Endothelial staining Positive (3-4+), number of monkeys (TGF beta-3 [4]) | Endothelial staining Positive (3-4+), percent of monkeys (TGF beta-3 [4]) | Median Percent of Apoptotic Cell Counts (ovarian epithelial cells) [%] | Range Percent of Apoptotic Cell Counts (ovarian epithelial cells) | Epithelial staining Negative (0-2+), number of monkeys (TGF beta-3 [5]) | Epithelial staining Positive (3-4+), number of monkeys (TGF beta-3 [5]) | Epithelial staining Positive (3-4+), percent of monkeys (TGF beta-3 [5]) | fewer ovarian and oviductal tumors than controls [6] [%] | Granulosa Cell staining Negative (0-2+), number of monkeys (TGF beta-3 [8]) | Granulosa Cell staining Positive (3-4+), number of monkeys (TGF beta-3 [8]) | Granulosa Cell staining Positive (3-4+), percent of monkeys (TGF beta-3 [8]) | also measured
C=C1/C(=C\C=C2/CCC[C@]3(C)[C@@H]([C@H](C)CCCC(C)(C)O)CC[C@@H]23)C[C@@H](O)C[C@@H]1O [1,25-dihydroxyvitamin D3] | significant increase in TGF β3 expression |  |  |  |  |  |  |  |  |  |  |  |  |  |  |  | increase in apoptosis as compared with the controls [1]: 300%; half-life [2]: 6 to 8 h
C=C1CC[C@H](O)C/C1=C/C=C1\CCC[C@]2(C)[C@@H]([C@H](C)CCCC(C)(C)O)CC[C@@H]12 [25-hydroxyvitamin D3] |  |  |  |  |  |  |  |  |  |  |  |  |  |  |  |  | biological half-life (in words) [2]: several weeks
C=C1/C(=C\C=C2/CCC[C@]3(C)[C@@H]([C@H](C)/C=C/C=C/C(O)(CC)CC)CC[C@@H]23)C[C@@H](O)C[C@@H]1O [E1089] | significant increase in TGF β3 expression |  |  |  |  |  |  |  |  |  |  |  |  |  |  |  | 
C#C[C@]1(O)CC[C@H]2[C@@H]3CCC4=CC(=O)CC[C@@H]4[C@H]3CC[C@@]21CC [Levonorgestrel, levonorgestrel] |  | 3 | 14 | (82%) | 1 | 16 | (94%) | 24.9 | 3.5-61.8% | 0 | 17 | (100%) | 35 | 16 | 1 | (6%) | increase in apoptosis as compared to controls [7]: 100%
C#C[C@]1(O)CC[C@H]2[C@@H]3CCc4cc(O)ccc4[C@H]3CC[C@@]21C [Ethinyl Estradiol (EE), ethinyl estradiol] |  | 4 | 17 | (81%) | 21 | 5 | (23%) | 1.8 | 0.1-28.6% | 19 | 2 | (10%) |  | 13 | 8 | (38%) | Median Percent of Apoptotic Cell Counts (ovarian epithelial cells; listed as Ethinyl-estradiol-only): 1.8%
CC(=O)O[C@]1(C(C)=O)CC[C@H]2[C@@H]3C[C@H](C)C4=CC(=O)CC[C@]4(C)[C@H]3CC[C@@]21C [provera, medroxyprogesterone acetate] |  |  |  |  |  |  |  |  |  |  |  |  | 35 |  |  |  | 
